What was measured:
Type in all cases: functional
MOLT-4 = assay: Growth inhibition of human MOLT-4 cells assessed as cell growth at 1 uM incubated for 48 hrs by sulforhodamine B assay relative to control; conditions: read-out: Activity
M14 = assay: Growth inhibition of human M14 cells assessed as cell growth at 100 uM incubated for 48 hrs by sulforhodamine B assay relative to control; conditions: read-out: Activity
EKVX = assay: Growth inhibition of human EKVX cells assessed as cell growth at 0.01 uM incubated for 48 hrs by sulforhodamine B assay relative to control; conditions: read-out: Activity
SF-539 [1] = assay: Growth inhibition of human SF-539 cells assessed as cell growth at 100 uM incubated for 48 hrs by sulforhodamine B assay relative to control; conditions: read-out: Activity
TK-10 = assay: Growth inhibition of human TK-10 cells assessed as cell growth at 0.1 uM incubated for 48 hrs by sulforhodamine B assay relative to control; conditions: read-out: Activity
Hs-578T [2] = assay: Growth inhibition of human Hs-578T cells assessed as cell growth at 0.1 uM incubated for 48 hrs by sulforhodamine B assay relative to control; conditions: read-out: Activity
SF-539 [3] = assay: Growth inhibition of human SF-539 cells assessed as cell growth at 0.1 uM incubated for 48 hrs by sulforhodamine B assay relative to control; conditions: read-out: Activity
HL-60(TB) = assay: Growth inhibition of human HL-60(TB) cells assessed as cell growth at 100 uM incubated for 48 hrs by sulforhodamine B assay relative to control; conditions: read-out: Activity
SK-MEL-2 [4] = assay: Growth inhibition of human SK-MEL-2 cells incubated for 48 hrs by sulforhodamine B assay
RXF 393 = assay: Growth inhibition of human RXF 393 cells assessed as cell growth at 100 uM incubated for 48 hrs by sulforhodamine B assay relative to control; conditions: read-out: Activity
UO-31 = assay: Growth inhibition of human UO-31 cells incubated for 48 hrs by sulforhodamine B assay
NCI-H226 = assay: Growth inhibition of human NCI-H226 cells assessed as cell growth at 1 uM incubated for 48 hrs by sulforhodamine B assay relative to control; conditions: read-out: Activity
CCRF-CEM [5] = assay: Growth inhibition of human CCRF-CEM cells assessed as cell growth at 0.01 uM incubated for 48 hrs by sulforhodamine B assay relative to control; conditions: read-out: Activity
A498 = assay: Growth inhibition of human A498 cells incubated for 48 hrs by sulforhodamine B assay
ACHN [6] = assay: Growth inhibition of human ACHN cells incubated for 48 hrs by sulforhodamine B assay
DU-145 = assay: Growth inhibition of human DU-145 cells assessed as cell growth at 100 uM incubated for 48 hrs by sulforhodamine B assay relative to control; conditions: read-out: Activity
K562 = assay: Growth inhibition of human K562 cells incubated for 48 hrs by sulforhodamine B assay
HCC 2998 = assay: Growth inhibition of human HCC 2998 cells assessed as cell growth at 100 uM incubated for 48 hrs by sulforhodamine B assay relative to control; conditions: read-out: Activity
ACHN [7] = assay: Growth inhibition of human ACHN cells assessed as cell growth at 100 uM incubated for 48 hrs by sulforhodamine B assay relative to control; conditions: read-out: Activity
SK-MEL-2 [8] = assay: Growth inhibition of human SK-MEL-2 cells assessed as cell growth at 0.01 uM incubated for 48 hrs by sulforhodamine B assay relative to control; conditions: read-out: Activity
LOX IMVI = assay: Growth inhibition of human LOX IMVI cells assessed as cell growth at 1 uM incubated for 48 hrs by sulforhodamine B assay relative to control; conditions: read-out: Activity
SN12C = assay: Growth inhibition of human SN12C cells assessed as cell growth at 1 uM incubated for 48 hrs by sulforhodamine B assay relative to control; conditions: read-out: Activity
ACHN [9] = assay: Growth inhibition of human ACHN cells assessed as cell growth at 0.01 uM incubated for 48 hrs by sulforhodamine B assay relative to control; conditions: read-out: Activity
RPMI-8226 = assay: Growth inhibition of human RPMI-8226 cells assessed as cell growth at 1 uM incubated for 48 hrs by sulforhodamine B assay relative to control; conditions: read-out: Activity
SK-MEL-5 = assay: Growth inhibition of human SK-MEL-5 cells assessed as cell growth at 1 uM incubated for 48 hrs by sulforhodamine B assay relative to control; conditions: read-out: Activity
NCI-H322M [10] = assay: Growth inhibition of human NCI-H322M cells assessed as cell growth at 1 uM incubated for 48 hrs by sulforhodamine B assay relative to control; conditions: read-out: Activity
CCRF-CEM [11] = assay: Growth inhibition of human CCRF-CEM cells incubated for 48 hrs by sulforhodamine B assay
OVCAR-4 = assay: Growth inhibition of human OVCAR-4 cells incubated for 48 hrs by sulforhodamine B assay
Hs-578T [12] = assay: Growth inhibition of human Hs-578T cells assessed as cell growth at 0.01 uM incubated for 48 hrs by sulforhodamine B assay relative to control; conditions: read-out: Activity
SK-OV-3 = assay: Growth inhibition of human SK-OV-3 cells assessed as cell growth at 100 uM incubated for 48 hrs by sulforhodamine B assay relative to control; conditions: read-out: Activity
NCI-H322M [13] = assay: Growth inhibition of human NCI-H322M cells assessed as cell growth at 0.1 uM incubated for 48 hrs by sulforhodamine B assay relative to control; conditions: read-out: Activity
COLO 205 = assay: Growth inhibition of human COLO 205 cells incubated for 48 hrs by sulforhodamine B assay
HCT-116 = assay: Growth inhibition of human HCT-116 cells assessed as cell growth at 0.01 uM incubated for 48 hrs by sulforhodamine B assay relative to control; conditions: read-out: Activity
SF-539 [14] = assay: Growth inhibition of human SF-539 cells assessed as cell growth at 1 uM incubated for 48 hrs by sulforhodamine B assay relative to control; conditions: read-out: Activity
[15] = read-out: LC50 (the source's name)
[16] = read-out: pLC50 (the source's name) (converted)

CC(=O)Nc1cc(CO[Si](C)(C)C(C)(C)C)cc(NC(=O)c2ccc(C(=O)Nc3cccc(NC(=O)CCCN(C)C)c3)cc2)c1
101%: growth at 0.01 µM (EKVX)
93%: growth at 100 µM (HCC 2998) | growth at 100 µM (SK-OV-3)
99%: growth at 0.1 µM (TK-10) | growth at 0.01 µM (Hs-578T [12])
91%: growth at 1 µM (MOLT-4)
104%: growth at 0.01 µM (HCT-116)
75%: growth at 100 µM (M14)
> 75 µM: GI50 (SK-MEL-2 [4]; read-out: GI50) | CC50 (SK-MEL-2 [4]; [15]) | TGI (SK-MEL-2 [4]; read-out: TGI) | GI50 (UO-31; read-out: GI50) | CC50 (UO-31; [15]) | TGI (UO-31; read-out: TGI) | LC50 (concentration giving 50% net cell kill) (A498; read-out: LC50) | TGI (A498; read-out: TGI) | GI50 (ACHN [6]; read-out: GI50) | CC50 (ACHN [6]; [15]) | TGI (ACHN [6]; read-out: TGI) | GI50 (K562; read-out: GI50) | CC50 (K562; [15]) | TGI (K562; read-out: TGI) | GI50 (CCRF-CEM [11]; read-out: GI50) | CC50 (CCRF-CEM [11]; [15]) | TGI (CCRF-CEM [11]; read-out: TGI) | GI50 (OVCAR-4; read-out: GI50) | LC50 (concentration killing 50% of cells) (OVCAR-4; read-out: LC50) | TGI (OVCAR-4; read-out: TGI) | GI50 (COLO 205; read-out: GI50) | LC50 (COLO 205; read-out: LC50) | TGI (COLO 205; read-out: TGI)
94%: growth at 1 µM (LOX IMVI)
97%: growth at 0.01 µM (CCRF-CEM [5]) | growth at 1 µM (NCI-H322M [10])
110%: growth at 1 µM (RPMI-8226)
84%: growth at 100 µM (ACHN [7])
95%: growth at 0.1 µM (NCI-H322M [13])
100%: growth at 0.01 µM (SK-MEL-2 [8]) | growth at 1 µM (SN12C) | growth at 0.01 µM (ACHN [9]) | growth at 1 µM (SF-539 [14])
83%: growth at 100 µM (RXF 393)
98%: growth at 0.1 µM (SF-539 [3]) | growth at 1 µM (SK-MEL-5)
121%: growth at 0.1 µM (Hs-578T [2])
> 75.9 µM: GI50 (SK-MEL-2 [4]; read-out: pGI50 (converted)) | CC50 (SK-MEL-2 [4]; [16]) | TGI (SK-MEL-2 [4]; read-out: pTGI) | GI50 (UO-31; read-out: pGI50 (converted)) | CC50 (UO-31; [16]) | TGI (UO-31; read-out: pTGI) | LC50 (concentration giving 50% net cell kill) (A498; read-out: pLC50 (converted)) | TGI (A498; read-out: pTGI) | GI50 (ACHN [6]; read-out: pGI50 (converted)) | CC50 (ACHN [6]; [16]) | TGI (ACHN [6]; read-out: pTGI) | GI50 (K562; read-out: pGI50 (converted)) | CC50 (K562; [16]) | TGI (K562; read-out: pTGI) | GI50 (CCRF-CEM [11]; read-out: pGI50 (converted)) | CC50 (CCRF-CEM [11]; [16]) | TGI (CCRF-CEM [11]; read-out: pTGI (converted)) | GI50 (OVCAR-4; read-out: pGI50 (converted)) | LC50 (concentration killing 50% of cells) (OVCAR-4; read-out: pLC50 (converted)) | TGI (OVCAR-4; read-out: pTGI) | GI50 (COLO 205; read-out: pGI50 (converted)) | LC50 (COLO 205; read-out: pLC50 (converted)) | TGI (COLO 205; read-out: pTGI)
92%: growth at 1 µM (NCI-H226)
85%: growth at 100 µM (DU-145)
88%: growth at 100 µM (SF-539 [1]) | growth at 100 µM (HL-60(TB))

Reference: ChEMBL document CHEMBL4715697, “Synthesis and biological activity of benzamide DNA minor groove binders” (2016)
